A short description of data set [1]: Stability of ground MC powder stored under refrigeration, pre-packaging. In kind it is physicochemical. The note with it: 5° C.±2° C., baseline to 3 months post grinding; one-way ANOVA. As to the method:
In the described experiment, Bedrocan strain MC powder was stored at 5° C.±2° C. with up to 12% relative humidity (RH) in a polypropylene container, sealed in an aluminum foil pouch (Oliver-Tolas Healthcare Packaging B.V.; Venray, Netherlands). In order to assess its stability during the handling and hold time, samples were taken from three separate growing batches and assayed at baseline and at 1, 2 and 3 months post grinding. Each sample was assayed for loss on drying (LOD), and of the concentrations of the major phytocannabinoids (CBDA, CBD, CBGA, CBN, THCA and THC).
(§1) Analysis of cannabis inflorescences for the main phytocannabinoids (CBDA, CBD, CBGA, CBN, THCA and THC) was performed as follows: 100 mg of ground Cannabis inflorescences were weighed in duplicate from one container and extracted with 25 mL methanol then sonicated for 40 min and centrifuged at 3000 rpm for 5 min. All samples were filtered through a 0.22 μm PP filter vail prior to analysis. The dilution and quantitation were preformed corresponding to calibration curves. The main six phytocannabinoids were analyzed by ultra-high-performance liquid chromatography (UHPLC: […]) system with a refrigerated auto-sampler, thermostatic column oven and ultraviolet detector, Waters ACQUITY UPLC H-Class. Chromatographic separation was achieved using UPLC column Waters Acquity C18, 1.7 μm particles, 2.1×150 mm maintained at 30° C. The phytocannabinoids were separated using a gradient elution with mobile phases of 0.1% (v/v) formic acid in double-distilled water (phase A) and acetonitrile (phase B), respectively. A constant flow rate of 0.4 mL/min was employed throughout. The gradient profile varied from 70% to 100% B in 10.5 min, held for 0.5 min in these conditions and then returned to the initial conditions.
(§2) For THC and CBD, the concentrations of the acid and its neutral counterpart were summed and reported as the total content. For example, the concentration of total THC […] was calculated as: Total THC=THCA * 0.877+THC, with 0.877 being the molar ratio between the two compounds that corrects for a change in the mass of THCA as a result of the loss of CO2 (decarboxylation). This is shown in FIG. 7A: “U-HPLC analysis of the Bedrocan cultivar”.
(§3) R software (V.1.1.463) with tidyverse (17) package was used to analyze changes in outcome measures by one way ANOVA test, using Fisher's exact test analysis. All analyses were followed by a Tukey post-hoc test for multiple comparison. Data are presented as Mean±95% confidence interval (CI). Differences were considered significant at the p<0.05 level.

A short description of data set [2]: Vaporization of THC and terpenes from ground cannabis heated to target temperatures. The format is physicochemical. The note with it: 135 mg ground cannabis; vaporized THC measured in the aerosol; targets 60-150° C. As to the method:
The vaporization plots in FIGS. 6A-B show results of an experiment performed by the inventors in which samples of 135 mg of ground cannabis were heated to several target temperatures, including 60° C., 70° C., 80° C., 90° C., 100° C., 110° C., 120° C., 130° C., 140° C. and 150° C. At each of the target temperatures, vaporized THC was measured in the aerosol. At each of the target temperatures, the residual mass of ground cannabis was analyzed using Gas Chromatography —Mass Spectrometry (GC/MS) to determine existence of terpenes, such as: Linalool, Isopulegol, Geraniol, Caryophyllene, 26.82 Humulene<alpha->and Nerolidol. The total terpenes residue (as remaining in the ground cannabis) is indicated by the dashed line in FIG. 6A. Based on the residual mass of terpenes, the released (vaporized) amount terpenes was calculated, by subtracting the measured residual mass from a respective reference mass.

The conditions of data set [3]: after four years, room temperature (22 C), light or darkness (storage conditions A and B); cited from earlier work.
A short description of data set [4]: THC dose aerosolized by the Syqe inhaler from stored cartridges. In kind it is physicochemical. The note with it: inhaler set to 500 μg THC, Mean±95% CI. As to the method:
Methods: MC inflorescences were ground to a fine powder and the concentrations of the major phytocannabinoids therein were analyzed at different time points using ultra-high performance liquid chromatography (U-HPLC). Storage was done under different temperature and humidity conditions, before or after being packaged in Syqe cartridges. MC aerosolized by a the Syqe inhaler using Syqe cartridges stored for up to 2 years at 25° C. was analyzed for THC doses.
(§4) In some embodiments, once cartridges are produced, they are stored, distributed and used at RT. In order to assess the shelf life of such cartridges, a long-term stability study was performed, during which cartridges were stored at 25° C.±2° C. (RH 60%±5%) in a calibrated and certified stability chamber (Memmert Constant climate chamber HPP260). 9, 6, 9, 8, 7, 4 and 4 separate growing batches were tested at baseline and after 3, 6, 9, 12, 18 and 24 months, respectively. At each time point samples of the ground inflorescence within the cartridges were analyzed for LOD and for the amount (mg) of each of the major phytocannabinoids (CBDA, CBD, CBGA, CBN, THCA and THC). Of the same batches, THC aerosolized by the Syqe inhaler was analyzed at baseline and at 6, 9, 18 and 24 months.
In some embodiments, the Syqe inhaler is preprogrammed with several distinct heating protocols. […]

The nature of data set [5]: Long-term stability of ground cannabis packaged in Syqe cartridges at room temperature. The settings on record: 25° C.±2° C., RH 60%±5%, baseline to 24 months; one-way ANOVA. The format is physicochemical. As to the method: as §4, §1, §2, §3
Data set [6] is described as follows: Stability of ground cannabis in Syqe cartridges stored at 30° C. In kind it is physicochemical. The note with it: 30° C.±2° C., 65% RH, baseline to 6 months; one-way ANOVA. As to the method: Additionally, to assess the effects of a warmer temperature on MC, Syqe cartridges were stored post-production at an elevated temperature and humidity of 30° C.±2° C. (65% RH+5% RH). Three different growing batches were analyzed at baseline and at 1, 2, 4 and 6 months of storage.
as §1, §2, §3

For `CCCCCc1cc(O)c2c(c1)OC(C)(C)[C@@H]1CCC(C)=C[C@@H]21` [THC, (-)-Δ^9-trans-tetrahydrocannabinol], in data set [1], the “change in phytocannabinoid concentration during the study period” value was “no significant change”. Moreover, the “target temperature at which release started” value in data set [2] was found to be 130 degrees C. For the same compound, in data set [3], the THC degraded was around 100%. The figures for the “aerosolized THC dose” value in data set [4] (6 months at 25° C.) and in data set [4] (BL) were 486.30 ± 50.56 µg and 484.76 ± 31.28 µg, respectively. Further, the “change in phytocannabinoid amount” value in data set [5] and in data set [6] was “increased significantly” each time.

For `CCCCCc1cc2c(c(O)c1C(=O)O)[C@@H]1C=C(C)CC[C@H]1C(C)(C)O2` (relative stereo) [THCA, (-)-Δ^9-trans-tetrahydrocannabinolic acid], the “change in phytocannabinoid concentration during the study period” value in data set [1] was “no significant change”. Further, the “change in phytocannabinoid amount” value in data set [5] and in data set [6] was “decreased significantly” in each case.

Consider `CCCCCc1cc(O)c2c(c1)OC(C)(C)c1ccc(C)cc1-2` [CBN, Cannabinol], for which the “change in phytocannabinoid concentration during the study period” value in data set [1] is “no significant change”. The “change in phytocannabinoid amount” value in data set [5] and in data set [6] was “increased significantly” in each case.

`C=C(C)[C@@H]1CCC(C)=C[C@H]1c1c(O)cc(CCCCC)c(C(=O)O)c1O` [CBDA, cannabidiolic acid]: the “change in phytocannabinoid concentration during the study period” value in data set [1] is given as “no significant change”. Also, the “change in phytocannabinoid amount” value in data set [5] was “no significant change”.

For the compound `CCCCCc1cc(O)c(C/C=C(\C)CCC=C(C)C)c(O)c1C(=O)O` [CBGA, cannabigerolic acid], the “change in phytocannabinoid concentration during the study period” value in data set [1] is recorded as “no significant change”. For the same compound, the “change in phytocannabinoid amount” value in data set [5] and in data set [6] was “decreased significantly” throughout.

Source of the values: US20250339631A1, “CONTROLLED RELEASE OF […] A SOURCE MATERIAL STORED OVER TIME” (Syqe Medical Ltd., priority 2022, published 2025).
